Experiment [1] relates to hmNPCs. Kind of experiment: Short-term proliferation: Ki67/nestin immunostaining. Type of experiment: cell-based, human. Particulars: Homo sapiens, 120 h, 1 µM, 5 subsequent days. As for the experimental part: To determine long-term proliferation, […] were plated and expanded for 2 passages with or without addition of various agents (see below) to the custom expansion media containing the growth factors EGF and FGF2. Different fetal midbrain tissues were included in this study. At the end of the proliferation period, differentiation of […] was induced via replacement of expansion media with mitogen-free media containing 1% FCS, 5 μM forskoline (Sigma-Aldrich Chemie GmbH Munich, Germany), and 100 pg/ml IL-1β (Sigma). The differentiation and expansion media were supplemented with different drugs as appropriate. Prior to immunocytochemistry or protein extraction, […] were allowed to differentiate for 1 week. To determine short-term proliferation via Ki67 immunostaining, the cells were seeded into 24-well plates (70,000 cells/well) and left overnight to rest. P2 receptor agonists (ATP, UTP, ATP + UTP, ADP, ADPβS) were supplied daily for 5 consecutive days. Ki67/nestin double-positive cells were counted in 8 randomly selected fields of nucleotide-treated or untreated samples. For the assessment of MAPK phosphorylation the cells were kept free of mitogens for 2 d prior to addition of the MEK-inhibitor in expansion media. In addition, the MEK-inhibitor was added during the differentiation period 15 min before UTP administration. […] Cover-slips were mounted onto glass slides and examined under a fluorescence microscope (Zeiss Axiovert 200). Acquisition of the cells was performed using the Image-analysis software AxioVision 4 (Carl Zeiss AG, Jena, Germany). The following primary antibodies were used for immunofluorescence: rabbit polyclonal anti-β-tubulin III (anti-Tuj1) antibody, rabbit polyclonal anti-tyrosine hydroxylase antibody , mouse monoclonal anti-nestin antibody (Pharmingen, San Diego, CA, USA), rabbit polyclonal anti-Ki67 antigen antibody (Novocastra Laboratories Ltd, Newcastle upon Tyne, UK). Estimation of the TH-positive cell numbers was performed by counting of cells among approximately 1000 differentiated cells in total within 6 randomly selected fields.

The test system of experiment [2] is hmNPCs. Kind of experiment: Patch-clamp of voltage-gated potassium and sodium channels in differentiated cells. Type of experiment: cell-based, human. The conditions noted are these: 100 µM; differentiation for 3 weeks. The method, then: Patch-clamp analyses of hmNPCs was carried out after in vitro differentiation for 3 weeks with or without 100 µM UTP at room temperature using an inverted microscope DMIL (Leica, Bensheim, Germany) and an EPC-9 amplifier (HEKA, Lambrecht, Germany). Recordings of voltage-gated potassium and sodium channels were obtained in the whole-cell voltage-clamp mode by stepwise depolarisations with increasing amplitudes from the holding potential of - 70mV to 50mV in steps of 10mV. Ligand-gated P2X-channels were investigated in the whole-cell voltage-clamp mode by rapid application of 300 µM ADP, ATP, and UTP with a SF-77B perfusion fast-step system (Warner Instruments Inc., Hamden, USA). Series resistance values were continuously measured during all recordings. The external bath solution contained (in mM): 142 NaCl, 1 CaCl2, 8 KCI, 6 MgCl2, 10 Glucose, and 10 HEPES (pH 7.4; 320 mOsm). Micropipettes were formed from thin-walled borosilicate glass (Science Products, Hofheim, Germany) with a Flaming Brown electrode puller P-97 (Sutter Instrument Co., Novato, USA) and a Micro Forge (Narishige, Tokio, Japan). […] Whole cell currents were low-pass filtered at 2-5 kHz, digitized at 10 kHz, and analyzed using PulseFit software (HEKA, Lambrecht, Germany) and Prism 4 (GraphPad Software Inc, San Diego, USA). Numerical data were expressed as mean ± SEM. […]
(In general: Patch clamp records ionic current or voltage across a cell membrane.)

From patent publication EP1897937A1, “Method of culturing NPCs” (NeuroProgen GmbH Leipzig, priority 2006, dated 2008) come the findings set out here.

Read-outs that look alike come from different tables or passages of the source.

With `O=c1ccn([C@@H]2O[C@H](COP(=O)(O)OP(=O)(O)OP(=O)(O)O)[C@@H](O)[C@H]2O)c(=O)[nH]1` [UTP, uridine 5'-triphosphate], the activity at 1 µM with hmNPCs [1] (read-out: NPCs double-immunoreactive for Ki67 and nestin) was determined as 193 ± 3%; in the experiment on hmNPCs [1] (read-out: cells immunoreactive for nestin alone) it was 188 ± 2%. Further, in the experiment on hmNPCs [2], the “maximal potassium and sodium current amplitudes, treated vs untreated” value was “no significant difference”.
